From patent US20240148709A1, “METHODS OF TREATING EYE PAIN AND EYE DISORDERS” (Aisa Pharma, Inc., priority 2022, published 2024)

System: participants with SSc-RP
Assay: Scleroderma Health Assessment Questionnaire (SHAQ), Phase 2a study Part A
Format: in vivo, human
Conditions: cilnidipine 10 mg and/or tadalafil 5 mg arms
Experimental: Part A—double-blind, placebo-controlled, parallel-group, dose selection, will assess the safety and efficacy of two doses of cilnidipine (10 mg and 20 mg), alone and in combination with tadalafil. A total of 36 participants will be randomized to one of six prespecified treatment arms. Refer to FIG. 1 for treatment arms in Part A of the study. Dosing last for 12 (±2) days in which participants will self-administer daily doses of assigned treatment in the morning. Each participant will take one capsule and one tablet to blind the active therapy being received.
The standard, validated, patient reported outcome measures tool for SSc patients, the SHAQ, will be collected at the time points specified in the study schedules (FIG. 2 and FIGS. 3A and 3B) to assess the participant's quality of life. The SHAQ includes a Raynaud's VAS that will also be reported separately.
Results: Patients in the study were administered the Scleroderma Health Assessment Questionnaire (SHAQ) at the time of study entry and during clinic visits following the treatment period. The study is a two-part, parallel arm design, prospective, double-blind, randomized study conducted in Australia (Flinders Medical Center). 27 patients were randomized into the first phase of the study, following which a DSMB meeting was held, which reviewed data on the primary study endpoint and key Raynaud's secondary endpoints. Data on the SHAQ was not available for the DSMB to review. The mITT population, in which any data was available post treatment was 24 patients was the analysis population for this first part of the study. The second part (i.e., part B) of the study will randomize 36 patients in a double blind, randomized, prospective, placebo controlled, crossover study. In the first part (i.e., Part A) of the study for which data is presented, patients were randomized into 6 groups, cilnidipine at two doses (10 and 20 mg) alone and in combination with tadalafil 5 mg, tadalafil 5 mg alone, and placebo. […] The DSMB recommended that the study proceed into its double blind prospective cross overpowered second phase and compare cilnidipine 20 mg alone to placebo.

SMILES: CN1CC(=O)N2[C@H](c3ccc4c(c3)OCO4)c3[nH]c4ccccc4c3C[C@@H]2C1=O [Tadalafil, tadalafil]
- SHAQ Visual Analog Scale-Intestinal Problems, Change from Baseline, Max: 1.80
- SHAQ Visual Analog Scale-Intestinal Problems, Change from Baseline, Mean (SD): −0.125 (1.6800)
- SHAQ Visual Analog Scale-Intestinal Problems, Change from Baseline, Median: 0.000
- SHAQ Visual Analog Scale-Intestinal Problems, Change from Baseline, Min: −2.30
- SHAQ Visual Analog Scale-Intestinal Problems, Change from Baseline, Q1: −1.150
- SHAQ Visual Analog Scale-Intestinal Problems, Change from Baseline, Q3: 0.900
- SHAQ Visual Analog Scale-Intestinal Problems, In Clinic Visit (Day 12), Max: 9.20
- SHAQ Visual Analog Scale-Intestinal Problems, In Clinic Visit (Day 12), Mean (SD): 3.025 (4.3162)
- SHAQ Visual Analog Scale-Intestinal Problems, In Clinic Visit (Day 12), Median: 1.450
- SHAQ Visual Analog Scale-Intestinal Problems, In Clinic Visit (Day 12), Min: 0.00
- SHAQ Visual Analog Scale-Intestinal Problems, In Clinic Visit (Day 12), Q1: 0.050
- SHAQ Visual Analog Scale-Intestinal Problems, In Clinic Visit (Day 12), Q3: 6.000
- SHAQ Visual Analog Scale-Intestinal Problems, Percent Change from Baseline, Max: 24.3%
- SHAQ Visual Analog Scale-Intestinal Problems, Percent Change from Baseline, Mean (SD): −6.92 (35.225) %
- SHAQ Visual Analog Scale-Intestinal Problems, Percent Change from Baseline, Median: 0.00%
- SHAQ Visual Analog Scale-Intestinal Problems, Percent Change from Baseline, Min: −45.1%
- SHAQ Visual Analog Scale-Intestinal Problems, Percent Change from Baseline, Q1: −45.10%
- SHAQ Visual Analog Scale-Intestinal Problems, Percent Change from Baseline, Q3: 24.32%
- SHAQ Visual Analog Scale-Pain, Change from Baseline, Max: 1.50
- SHAQ Visual Analog Scale-Pain, Change from Baseline, Mean (SD): 1.000 (0.4359)
- SHAQ Visual Analog Scale-Pain, Change from Baseline, Median: 0.800
- SHAQ Visual Analog Scale-Pain, Change from Baseline, Min: 0.70
- SHAQ Visual Analog Scale-Pain, Change from Baseline, Q1: 0.700
- SHAQ Visual Analog Scale-Pain, Change from Baseline, Q3: 1.500
- SHAQ Visual Analog Scale-Pain, In Clinic Visit (Day 12), Max: 9.20
- SHAQ Visual Analog Scale-Pain, In Clinic Visit (Day 12), Mean (SD): 5.300 (4.1577)
- SHAQ Visual Analog Scale-Pain, In Clinic Visit (Day 12), Median: 5.850
- SHAQ Visual Analog Scale-Pain, In Clinic Visit (Day 12), Min: 0.30
- SHAQ Visual Analog Scale-Pain, In Clinic Visit (Day 12), Q1: 1.900
- SHAQ Visual Analog Scale-Pain, In Clinic Visit (Day 12), Q3: 8.700
- SHAQ Visual Analog Scale-Pain, Percent Change from Baseline, Max: 75.0%
- SHAQ Visual Analog Scale-Pain, Percent Change from Baseline, Mean (SD): 31.35 (37.825) %
- SHAQ Visual Analog Scale-Pain, Percent Change from Baseline, Median: 10.81%
- SHAQ Visual Analog Scale-Pain, Percent Change from Baseline, Min: 8.2%
- SHAQ Visual Analog Scale-Pain, Percent Change from Baseline, Q1: 8.24%
- SHAQ Visual Analog Scale-Pain, Percent Change from Baseline, Q3: 75.00%
- SHAQ Visual Analog Scale-Raynaud's, Change from Baseline, Max: −0.10
- SHAQ Visual Analog Scale-Raynaud's, Change from Baseline, Mean (SD): −0.825 (0.9674)
- SHAQ Visual Analog Scale-Raynaud's, Change from Baseline, Median: −0.500
- SHAQ Visual Analog Scale-Raynaud's, Change from Baseline, Min: −2.20
- SHAQ Visual Analog Scale-Raynaud's, Change from Baseline, Q1: −1.500
- SHAQ Visual Analog Scale-Raynaud's, Change from Baseline, Q3: −0.150
- SHAQ Visual Analog Scale-Raynaud's, In Clinic Visit (Day 12), Max: 9.20
- SHAQ Visual Analog Scale-Raynaud's, In Clinic Visit (Day 12), Mean (SD): 4.950 (3.7749)
- SHAQ Visual Analog Scale-Raynaud's, In Clinic Visit (Day 12), Median: 5.200
- SHAQ Visual Analog Scale-Raynaud's, In Clinic Visit (Day 12), Min: 0.20
- SHAQ Visual Analog Scale-Raynaud's, In Clinic Visit (Day 12), Q1: 2.200
- SHAQ Visual Analog Scale-Raynaud's, In Clinic Visit (Day 12), Q3: 7.700
- SHAQ Visual Analog Scale-Raynaud's, Percent Change from Baseline, Max: −3.1%
- SHAQ Visual Analog Scale-Raynaud's, Percent Change from Baseline, Mean (SD): −19.71 (16.460) %
- SHAQ Visual Analog Scale-Raynaud's, Percent Change from Baseline, Median: −20.67%
- SHAQ Visual Analog Scale-Raynaud's, Percent Change from Baseline, Min: −34.4%
- SHAQ Visual Analog Scale-Raynaud's, Percent Change from Baseline, Q1: −33.85%
- SHAQ Visual Analog Scale-Raynaud's, Percent Change from Baseline, Q3: −5.56%
- SHAQ alternative disability index, Change from Baseline, Max: 0.00
- SHAQ alternative disability index, Change from Baseline, Mean (SD): −0.094 (0.0625)
- SHAQ alternative disability index, Change from Baseline, Median: −0.125
- SHAQ alternative disability index, Change from Baseline, Min: −0.13
- SHAQ alternative disability index, Change from Baseline, Q1: −0.125
- SHAQ alternative disability index, Change from Baseline, Q3: −0.063
- SHAQ alternative disability index, In Clinic Visit (Day 12), Max: 1.00
- SHAQ alternative disability index, In Clinic Visit (Day 12), Mean (SD): 0.375 (0.4787)
- SHAQ alternative disability index, In Clinic Visit (Day 12), Median: 0.250
- SHAQ alternative disability index, In Clinic Visit (Day 12), Min: 0.00
- SHAQ alternative disability index, In Clinic Visit (Day 12), Q1: 0.000
- SHAQ alternative disability index, In Clinic Visit (Day 12), Q3: 0.750
- SHAQ alternative disability index, Percent Change from Baseline, Max: −11.1%
- SHAQ alternative disability index, Percent Change from Baseline, Mean (SD): −43.70 (48.956) %
- SHAQ alternative disability index, Percent Change from Baseline, Median: −20.00%
- SHAQ alternative disability index, Percent Change from Baseline, Min: −100.0%
- SHAQ alternative disability index, Percent Change from Baseline, Q1: −100.00%
- SHAQ alternative disability index, Percent Change from Baseline, Q3: −11.11%
